Laboratory results reported in ChEMBL document CHEMBL5046252, “Integrin-Mediated Targeted Cancer Therapy Using c(RGDyK)-Based Conjugates of Gemcitabine” (J Med Chem, 2022).
Values belong to the compound of their own block, whether it stands above or below them. The source made the active and inactive calls. The rule behind the calls is not given here.

Assays:
[1] = Drug uptake in C57BL/6 naive mouse blood at 10 mg/kg, ip measured after 6 hrs by LC-MS/MS analysis; format: ADME, organism-based; conditions: C57BL/6, mouse, whole blood, read-out: Drug uptake
[2] = Drug metabolism in C57BL/6 naive mouse blood assessed as release of gemcitabine metabolite at 10 mg/kg, ip measured after 0.25 hrs by LC-MS/MS analysis; format: ADME, organism-based; conditions: in vivo
[3] = Chemostability of the compound in acetate buffer at pH 5.2 measured upto 48 hrs by LC-MS analysis; format: physicochemical; conditions: pH 5.2, 48 h
[4] = Stability of the compound in DMEM-F12 medium measured for 70 hrs by LC-MS/MS analysis; format: physicochemical
[5] = Stability of the compound in human plasma at 1 ug/ml measured for 4 hrs by LC-MS/MS analysis; format: ADME, cell-free; conditions: at 1 µg/mL
[6] = Drug metabolism in C57BL/6 naive mouse blood assessed as release of gemcitabine metabolite at 10 mg/kg, ip measured after 6 hrs by LC-MS/MS analysis; format: ADME, organism-based; conditions: in vivo
[7] = Drug uptake in C57BL/6 naive mouse blood at 10 mg/kg, ip measured after 24 hrs by LC-MS/MS analysis; format: ADME, organism-based; conditions: C57BL/6, mouse, whole blood, read-out: Drug uptake
A549 = test: Antiproliferative activity against human A549 cells assessed as inhibition of cell growth measured after 72 hrs by MTT assay; format: functional, cell-based; conditions: A549, 72 h
[8] = Drug uptake in C57BL/6 naive mouse blood at 10 mg/kg, ip measured after 0.25 hrs by LC-MS/MS analysis; format: ADME, organism-based; conditions: C57BL/6, mouse, whole blood, read-out: Drug uptake
[9] = Drug uptake in C57BL/6 naive mouse blood at 10 mg/kg, ip measured after 1 hr by LC-MS/MS analysis; format: ADME, organism-based; conditions: C57BL/6, mouse, whole blood, read-out: Drug uptake
WM 266-4 [10] = test: Induction of apoptosis in human WM266-4 cells assessed as late apoptotic cells at 1 uM measured after 72 hrs by Annexin V-FITC and PI staining based flow cytometry analysis (reference value: 0.5%); format: functional
[11] = Drug metabolism in C57BL/6 naive mouse blood assessed as release of gemcitabine metabolite at 10 mg/kg, ip measured after 8 hrs by LC-MS/MS analysis; format: ADME, organism-based; conditions: in vivo
WM 266-4 [12] = test: Inhibition of clonogenicity in human WM266-4 cells assessed as proportion of cell colonies at 1 uM measured after 72 hrs relative to control; format: functional; set-up: scale not given: the % may be the effect or the level left
[13] = Drug uptake in C57BL/6 naive mouse blood at 10 mg/kg, ip measured after 4 hrs by LC-MS/MS analysis; format: ADME, organism-based; conditions: C57BL/6, mouse, whole blood, read-out: Drug uptake
WM 266-4 [14] = test: Induction of apoptosis in human WM266-4 cells assessed as necrotic cells at 1 uM measured after 72 hrs by Annexin V-FITC and PI staining based flow cytometry analysis (reference value: […]); format: functional
[15] = Drug metabolism in C57BL/6 naive mouse blood assessed as release of gemcitabine metabolite at 10 mg/kg, ip measured after 4 hrs by LC-MS/MS analysis; format: ADME, organism-based; conditions: in vivo
[16] = Drug uptake in C57BL/6 naive mouse blood at 10 mg/kg, ip measured after 0.5 hrs by LC-MS/MS analysis; format: ADME, organism-based; conditions: C57BL/6, mouse, whole blood, read-out: Drug uptake
[17] = Drug metabolism in human A549 cells assessed as gemcitabine metabolite formation at 10 uM measured per 2 x 10^5 cells after 24 hrs by LC-MS/MS analysis; format: ADME, cell-based; conditions: a549, 24 h
[18] = Drug uptake in human A549 cells at 20 uM in presence of alphavbeta3 integrin […]-cilengitide incubated for 2 hrs by LC-MS analysis; format: cell-based; conditions: a549, 2 h
[19] = Drug uptake in C57BL/6 naive mouse blood at 10 mg/kg, ip measured after 8 hrs by LC-MS/MS analysis; format: ADME, organism-based; conditions: C57BL/6, mouse, whole blood, read-out: Drug uptake
[20] = Chemostability of the compound in phosphate buffer buffer at pH 7.4 measured upto 48 hrs by LC-MS analysis; format: physicochemical; conditions: pH 7.4, 48 h
WM 266-4 [21] = test: Inhibition of cell growth in human WM266-4 cells measured after 24 hrs; format: functional, cell-based; conditions: WM 266-4, 24 h
[22] = Drug metabolism in human A549 cells assessed as 2',2'-difluorodeoxyuridine metabolite concentration at 10 uM measured per 2X10^5 cells after 24 hrs by LC-MS/MS analysis; format: ADME, cell-based; conditions: a549, 24 h
[23] = Drug metabolism in C57BL/6 naive mouse blood assessed as release of gemcitabine metabolite at 10 mg/kg, ip measured after 24 hrs by LC-MS/MS analysis; format: ADME, organism-based; conditions: in vivo
[24] = Drug uptake in C57BL/6 naive mouse blood at 10 mg/kg, ip measured after 2 hrs by LC-MS/MS analysis; format: ADME, organism-based; conditions: C57BL/6, mouse, whole blood, read-out: Drug uptake
[25] = Stability of the compound in human A549 cells assessed as parent compound concentration at 10 uM measured per 2 x 10^6 cells after 4 hrs by LC-MS/MS analysis; format: ADME, cell-based; conditions: a549, 4 h
[26] = Drug metabolism in C57BL/6 naive mouse blood assessed as release of gemcitabine metabolite at 10 mg/kg, ip measured after 2 hrs by LC-MS/MS analysis; format: ADME, organism-based; conditions: in vivo
WM 266-4 [27] = test: Induction of apoptosis in human WM266-4 cells assessed as viable cells at 1 uM measured after 72 hrs by Annexin V-FITC and PI staining based flow cytometry analysis (reference value: 98.2%); format: functional; conditions: read-out: Activity
[28] = Drug uptake in human A549 cells at 20 uM in presence of alphavbeta3 integrin […], c(RGDyK) incubated for 2 hrs by LC-MS analysis; format: cell-based; conditions: a549, 2 h
WM 266-4 [29] = test: Induction of apoptosis in human WM266-4 cells assessed as early apoptotic cells at 1 uM measured after 72 hrs by Annexin V-FITC and PI staining based flow cytometry analysis (reference value: 0.2%); format: functional
[30] = Drug metabolism in C57BL/6 naive mouse blood assessed as release of gemcitabine metabolite at 10 mg/kg, ip measured after 1 hr by LC-MS/MS analysis; format: ADME, organism-based; conditions: in vivo
[31] = Drug metabolism in C57BL/6 naive mouse blood assessed as release of gemcitabine metabolite at 10 mg/kg, ip measured after 0.5 hrs by LC-MS/MS analysis; format: ADME, organism-based; conditions: in vivo
[32] = Stability of the compound in C57BL/6 naive mouse blood at 10 mg/kg, ip measured for 1 hr by LC-MS/MS analysis; format: ADME, organism-based; conditions: in vivo
WM 266-4 [33] = test: Inhibition of cell invasiveness in human WM266-4 cells at 10 uM measured after 4 hrs by DiffQuick staining based light microscopic analysis; format: functional
[34] = Drug metabolism in human plasma assessed as release of 2',2'-difluorodeoxyuridine metabolite at 1 ug/ml by LC-MS/MS analysis; format: ADME, cell-free; conditions: dose 1 µg/ml
[35] = Chemostability of the compound in phosphate buffer assessed as compound hydrolysis at pH 7.4 measured after 7 hrs by LC-MS analysis; format: physicochemical; conditions: pH 7.4, 7 h
[36] = Chemostability of the compound in phosphate buffer assessed as residual parent compound concentration at pH 7.4 measured after 24 hrs by LC-MS analysis; format: physicochemical; conditions: read-out: Activity
[37] = Drug metabolism in human plasma assessed as gemcitabine release at 1 ug/ml by LC-MS/MS analysis; format: ADME, cell-free; conditions: dose 1 µg/ml

concentration at 6 h [1]: 0.168 µM
Drug metabolism [2]: 748 nM
Stability [3]: Stable
Stability [4]: Stable
Stability [5]: Stable
Drug metabolism [6]: 11 nM
concentration at 24 h [7]: 0.014 µM
IC50 (A549): 0.678 µM
concentration at 0.25 h [8]: 6.66 µM
concentration at 1 h [9]: 3.32 µM
Drug metabolism [11]: 40 nM
concentration at 4 h [13]: 0.038 µM
Drug metabolism [15]: 7 nM
concentration at 0.5 h [16]: 8.47 µM
Drug metabolism [17]: < 0.05 ng
Drug uptake [18]: Not Active
concentration at 8 h [19]: 0.011 µM
Stability [20]: Stable
Drug metabolism [22]: 4 ng
Drug metabolism [23]: 3 nM
concentration at 2 h [24]: 0.547 µM
Drug uptake [25]: 5 ng
Drug metabolism [26]: 6 nM
Drug uptake [28]: Not Active
Drug metabolism [30]: 46 nM
Drug metabolism [31]: 33 nM
Stability [32]: Stable
SMILES: N=C(N)NCCC[C@@H]1NC(=O)[C@H](CCCCNC(=O)OC[C@H]2O[C@@H](n3ccc(N)nc3=O)C(F)(F)[C@@H]2O)NC(=O)[C@@H](Cc2ccc(O)cc2)NC(=O)[C@H](CC(=O)O)NC(=O)CNC1=O
Activity (WM 266-4 [10]): 4.8%
Activity (WM 266-4 [12]): 8.3%
Activity (WM 266-4 [14]): 21.7%
IC50 (WM 266-4 [21]): 57.6 µM
viability at 1 µM (WM 266-4 [27]): 72.3%
Activity (WM 266-4 [29]): 1.3%
inhibition (WM 266-4 [33]): Active

SMILES: N=C(N)NCCC[C@@H]1NC(=O)[C@H](CCCCN)NC(=O)[C@@H](Cc2ccc(O)cc2)NC(=O)[C@H](CC(=O)O)NC(=O)CNC1=O
inhibition (WM 266-4 [33]): Active

Stability [3]: Stable
IC50 (A549): 0.0306 µM
Drug metabolism [34]: Metabolite_Detected
Stability [35]: Unstable
remaining at 24 h [36]: 85%
Drug metabolism [37]: Metabolite_Detected
SMILES: N=C(N)NCCC[C@@H]1NC(=O)[C@H](CCCCNC(=O)OCCSSCCOC(=O)OC[C@H]2O[C@@H](n3ccc(N)nc3=O)C(F)(F)[C@@H]2O)NC(=O)[C@@H](Cc2ccc(O)cc2)NC(=O)[C@H](CC(=O)O)NC(=O)CNC1=O
Activity (WM 266-4 [10]): 2.2%
Activity (WM 266-4 [12]): 4.9%
Activity (WM 266-4 [14]): 31.1%
IC50 (WM 266-4 [21]): > 100 µM
viability at 1 µM (WM 266-4 [27]): 66.4%
Activity (WM 266-4 [29]): 0.3%
inhibition (WM 266-4 [33]): Active

IC50 (A549): 0.0188 µM
SMILES: Nc1ccn([C@@H]2O[C@H](CO)[C@@H](O)C2(F)F)c(=O)n1 [GEMCITABINE]
Activity (WM 266-4 [10]): 5.1%
Activity (WM 266-4 [12]): 46.6%
Activity (WM 266-4 [14]): 12.4%
IC50 (WM 266-4 [21]): 17.8 µM
viability at 1 µM (WM 266-4 [27]): 78.3%
Activity (WM 266-4 [29]): 4.1%
